Measured values: US20060258000A1, “Use of steady-state oxygen gradients to modulate animal cell functions” (priority 2003, published 2006)

What was measured:
CYP2B [1] = test system: CYP2B
Protocol: (§1) Primary rat hepatocytes from 6-well plates or chamber slides were lysed and scraped in SDS buffered (10 mM Tris/HCl (ph 7.4), 0.1% SDS). Samples were added to microcentrifuge tubes with 5 μl of PMSF, homogenized with a pestle, and centrifuged at 16,200 g for 5 minutes. Total protein content in the supernatant was determined using the DC protein assay (Bio-Rad, Hercules, Calif.) and used to normalize sample loading. Samples prepared in sample buffer were loaded (10-20 μg/well) for electrophoresis on a 10% polyacrylamide gel. After overnight transfer on to a PVDF membrane, blots were incubated with a blocking buffered (20 mM Tris-Cl (pH 7.4), 500 mM NaCl, 0.1% Tween 20, and 5% (w/v) milk powder) and washed with buffer without milk powder, incubation for 1 h with primary antibody against rat PEPCK or rat CYP2B (Genset, Woburn, Mass.) was followed by washing and incubation with either anti-sheep (PEPCK) or anti-goat (CYP2B) HRP-conjugated secondary antibody for 45 minutes. After washing, the Pierce SuperSignal chemiluminescence reagent was used for detection. All electrophoresis gels were run with molecular mass markers to verify PEPCK bands (67 kDa) or CYP2B1/2 bands (56 kDa). Optical density measurements were obtained using scanned blot images with 1d gelscan software (Metamorph).

CYP3A = CYP3A protein induction in static and perfused co-cultures, Western blot
CYP2B [2] = test: CYP2B protein induction in static and perfused co-cultures, Western blot
Protocol: as §1

CYP2B [3] = test: Zonal induction of CYP2B in hepatocyte bioreactor under oxygen gradient, Western blot
Protocol: Bioreactor cultures were perfused with media and allowed to reach steady state before the addition of inductive agents of glucagon for PEPCK up-regulation or phenobarbitol (PB) and EGF for CYP2B1 induction. […] Media with 0.75 mM PB and 0.16 nM EGF was perfused for 36 h to induced CYB2B expression before cell lysis. Cell lysates were collected at the end of each experiment for electrophoretic analysis.
Primary rat hepatocytes from 6-well plates or chamber slides were lysed and scraped in SDS buffered (10 mM Tris/HCl (ph 7.4), 0.1% SDS). Samples were added to microcentrifuge tubes with 5 μl of PMSF, homogenized with a pestle, and centrifuged at 16,200 g for 5 minutes. Total protein content in the supernatant was determined using the DC protein assay (Bio-Rad, Hercules, Calif.) and used to normalize sample loading. Samples prepared in sample buffer were loaded (10-20 μg/well) for electrophoresis on a 10% polyacrylamide gel.

PEPCK = test: Zonal induction of PEPCK in hepatocyte bioreactor under oxygen gradient, Western blot; assay type: cell-based, rat
From the text: Hepatocyte Isolation And Culture.
Bioreactor And Flow Circuit.

[4] = cultures perfused with 200 μM PB, 36 hours
[5] = static cultures induced with PB

Q: `C[C@@H]1C[C@H]2[C@@H]3CCC4=CC(=O)C=C[C@]4(C)[C@@]3(F)[C@@H](O)C[C@]2(C)[C@@]1(O)C(=O)CO` [DEX, dexamethasone] was tested. Which “CYP2B induction and localization” value (CYP2B [1]) did it give?
A: high levels which were localized to inlet regions

Q: Which results are given for `CCC1(c2ccccc2)C(=O)NC(=O)NC1=O` [PB, phenobarbital]?
A: CYP3A expression over controls (CYP3A; [4]): Dramatic expression of both CYPs over controls; CYP3A spatial distribution along bioreactor (CYP3A; [4]): increasing expression from inlet to outlet; CYP3A expression (CYP3A; [5]): low CYP3A; CYP2B expression over controls (CYP2B [2]; [4]): Dramatic expression of both CYPs over controls; CYP2B spatial distribution along bioreactor (CYP2B [2]; [4]): levels were highest in the lower-oxygen outlet regions; CYP2B expression (CYP2B [2]; [5]): moderate CYP2B expression; CYP2B induction along the chamber (CYP2B [3]; 0.75 mM PB with 0.16 nM EGF, 36 h, inlet pO2 76 mmHg, 0.5 mL/min (physiologic gradient)): increasing CYP2B induction along the length of the chamber; CYP2B levels from inlet to outlet (CYP2B [3]; PB with EGF, supraphysiologic oxygen gradient, same flow rate): did not result in significant differences in CYP2B levels from inlet to outlet

Q: Which results are given for glucagon?
A: PEPCK protein levels in 4 bioreactor regions (PEPCK; 10 nM glucagon 8 h, inlet pO2 76 mmHg, 0.5 mL/min (physiologic gradient)): maximal PEPCK protein levels at the inlet decreasing to half maximal at the outlet; PEPCK induction distribution (PEPCK; 10 nM glucagon, inlet pO2 158 mmHg, 0.5 ml/min (supraphysiologic gradient)): heterogenous induction of PEPCK was abrogated
